Here are results for 13 molecules from PubChem BioAssay (NCI).

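96-well plates; 48 h exposure; 5 concentrations. Endpoints by linear interpolation between flanking doses. Not reached: highest tested concentration assigned. GI50 = concentration required for 50% inhibition of growth. TGI: concentration producing complete growth inhibition.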

Common to all, as to assay: NCI-60 cell line screen, 48 h
Assay [1] concerns A549 NSCLC.
Assay [2] deals with CCRF-CEM leukemia.
Assay [3] concerns NCI-H23 lung.
The test system of assay [4] is SW-620 colon.
In assay [5] the test system is SF-295 CNS.
Assay [6] deals with UACC-257 melanoma.
Assay [7] relates to M19-MEL melanoma.
Assay [8] relates to SNB-78 CNS.
Assay [9] relates to HOP-92 NSCLC.
In assay [10] the test system is PC-3 prostate.

For `CN1c2ccccc2N(C)C2C1N(C)c1ccccc1N2C` (configuration not stated), the TGI in assay [1] was greater than 100 µM; in [2] it was 9.73 µM; in assay [3], 74.7 µM; in assay [4] it was greater than 100 µM; in [5], greater than 100 µM; in assay [6], greater than 100 µM. In addition, the values for the TGI in assay [7], in [8] and in assay [9] were 32.7 µM, greater than 100 µM and 52.4 µM, respectively.

As for `CC(=O)O[C@H]1CC[C@@]2(C)C(=CC[C@H]3C4=CC=C(C(C)=O)[C@@]4(C)CCC32)C1` (some centres not stated), the TGI in assay [1] was greater than 100 µM; in [2], greater than 100 µM; in assay [4], 52.7 µM; in [5], greater than 100 µM; in assay [6], 62.1 µM; in [7] it was greater than 100 µM. The TGI in assay [8] and in [9] was greater than 100 µM each time.

Turning to `COC1OC(CO)C(O)C(O)C1Br` (configuration not stated), the TGI in assay [1], in assay [2], in [3], in assay [4], in assay [5] and in assay [6] was greater than 100 µM in each case. In addition, the TGI in assay [7], in assay [8] and in [9] was greater than 100 µM in each case.

As to `C1CCN(c2nsc(N3CCCCC3)n2)CC1`, the TGI in [1], in [2], in assay [3], in assay [4], in assay [5] and in assay [6] was greater than 100 µM throughout. Also, the TGI in assay [7], in assay [8] and in assay [9] was greater than 100 µM each time.

As to `COc1ccc2c(c1OC)C1=C(C2=O)c2cc3c(cc2CCN1)OCO3`, the TGI was greater than 100 µM in assay [1]; greater than 100 µM in assay [2]; greater than 100 µM in assay [3]; 47.5 µM in assay [4]; greater than 100 µM in assay [5]; greater than 100 µM in assay [6]. Besides, the TGI in assay [7], in assay [8] and in [9] was greater than 100 µM in each case.

On to `COC(=O)c1sc(C(=O)OC)c2c1CSC2`, for which the TGI in [1], in assay [2], in assay [3], in assay [4], in assay [5] and in assay [6] was greater than 100 µM each time. Moreover, the TGI in assay [7] was greater than 100 µM; in [8], greater than 100 µM; in assay [9], greater than 93.6 µM; in assay [10], greater than 100 µM.

For `COCC(=O)CP(=O)(OC)OC`, the TGI in [1], in [2], in assay [3], in assay [4], in assay [5] and in [6] was greater than 100 µM throughout. The TGI in assay [7], in assay [8] and in assay [9] was greater than 100 µM throughout.

Regarding `CCNC(=O)C#CC(=O)NCC`, the GI50 in assay [1], in [2], in [3], in assay [4], in assay [5] and in assay [6] was greater than 10 µM each time. The GI50 was greater than 10 µM in assay [7], greater than 100 µM in assay [8] and greater than 10 µM in [9]. In addition, the TGI in assay [1] was greater than 100 µM; in assay [2], greater than 72.3 µM; in assay [3], greater than 100 µM; in assay [4], greater than 87.7 µM; in [5] it was greater than 100 µM; in [6] it was greater than 100 µM. Also, the TGI in assay [7], in [8] and in [9] was greater than 100 µM each time.

Turning to `C=C=C(CC)C(C(=O)OC)N(CC)CC` (configuration not stated), the TGI in assay [1], in [2], in assay [3], in assay [4], in assay [5] and in assay [6] was greater than 100 µM throughout. Besides, the TGI in [7], in [8] and in [9] was greater than 100 µM each time.

With `COc1cccc(NC(=O)CC(=O)N2N=C(N(CCC#N)c3ccccc3C)CC2c2ccccc2)c1` (configuration not stated), the TGI in [1], in assay [2], in assay [3], in [4], in assay [5] and in [6] was greater than 100 µM throughout. Besides, the TGI in [7], in assay [8] and in [9] was greater than 100 µM throughout.

On to `O=C(O)/C(=C/c1c(O)ccc2ccccc12)c1csc(-c2nc(/C(=C\c3c(O)ccc4ccccc34)C(=O)O)cs2)n1`, for which the TGI came to 55.5 µM in [1]; 31.4 µM in assay [2]; 27.1 µM in assay [3]; 59 µM in assay [4]; 28.5 µM in [5]; 40.9 µM in assay [6]. In addition, the TGI was 19.9 µM in assay [7], 34.7 µM in assay [8] and 7.77 µM in assay [9].

`O=C1C=C(Br)C(=O)C12CCc1ccccc12` (configuration not stated): the TGI in assay [1] is 55.4 µM; in assay [2], greater than 27.5 µM; in [3] it was 44.6 µM; in assay [4], 16.2 µM; in [5] it was 36.6 µM; in [6], 41.3 µM. Further, the TGI in [7] was found to be 36.5 µM; in [8] it was 59.4 µM; in assay [9] it was 27.3 µM; in [10], 32.5 µM.

For `O=c1cc2ccccc2nn1Cc1ccccc1Cl`, the TGI in assay [1], in assay [2], in [3], in assay [4], in assay [5] and in [6] was greater than 100 µM in each case. In addition, the TGI in assay [7], in [8] and in assay [9] was greater than 100 µM each time.
